Test [1] relates to PAXF1657 control empty vector cell line. Briefly: 7-day proliferation assay, PAXF1657 control empty vector cell line (Example 9). It is filed as cell-based. The conditions noted are these: 168 h; Cell Line: PAXF1657 empty vector (EV) cell line; 7-day; read-out: C: 7-day proliferation assay: IC50 GeoMean. Put shortly: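 Read-out is CellTiter-Glo luminescence after 7 days of continuous exposure, with compound re-dosed in fresh medium at day 3. Cells were seeded at 500/well and treated across 30 μM-0.0002 μM (10 points, 0.3% DMSO); baseline viability plates were read at compound addition.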

Test [2] concerns the target T1, GRK2 (Homo sapiens, UniProt P25098).
T1 construct: purchased SignalChem A14-10G
T1 sequence (P25098 1-689): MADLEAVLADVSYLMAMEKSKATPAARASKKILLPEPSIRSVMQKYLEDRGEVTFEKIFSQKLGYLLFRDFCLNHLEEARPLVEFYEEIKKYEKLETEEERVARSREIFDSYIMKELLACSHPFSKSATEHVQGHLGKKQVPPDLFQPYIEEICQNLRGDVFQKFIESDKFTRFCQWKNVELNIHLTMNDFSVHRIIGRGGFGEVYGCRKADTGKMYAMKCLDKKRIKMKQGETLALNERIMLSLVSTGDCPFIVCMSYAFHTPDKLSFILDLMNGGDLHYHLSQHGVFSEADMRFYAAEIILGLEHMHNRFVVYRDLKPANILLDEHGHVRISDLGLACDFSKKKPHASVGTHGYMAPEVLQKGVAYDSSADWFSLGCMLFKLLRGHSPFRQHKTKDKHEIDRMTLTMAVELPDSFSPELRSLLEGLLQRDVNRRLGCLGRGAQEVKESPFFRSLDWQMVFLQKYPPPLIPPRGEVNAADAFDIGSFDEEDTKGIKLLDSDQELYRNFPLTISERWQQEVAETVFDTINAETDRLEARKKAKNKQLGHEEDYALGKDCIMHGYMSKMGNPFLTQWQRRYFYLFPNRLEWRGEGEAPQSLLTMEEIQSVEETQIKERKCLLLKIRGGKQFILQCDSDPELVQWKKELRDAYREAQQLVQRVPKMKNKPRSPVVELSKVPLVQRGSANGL
Nature of the test: ADPGlo GRK2 Inhibition Assay (Example 8). The conditions noted are these: Enzyme Assay A, ADPGlo (Example 8); read-out: A: Enzymatic GRK2: IC50 (nM) (Example 8). It is filed as biochemical. Put shortly:
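GRK2 (15 nM 2× enzyme solution) was preincubated 15 min with compound, then reacted 180 min at room temperature with 2× mix of 20 μM ATP plus GRKtide in HEPES pH 7.5, MgCl2, Tween-20, DTT. ADP was detected by ADP-Glo luminescence. Percent inhibition was normalised to enzyme and no-enzyme controls, with dose-response curves from threefold dilutions starting at 100 μM.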
For orientation: In ADP-Glo the light output rises with the ADP produced.

For the compound `Cn1c(CNc2cccc(C(=O)NC3(c4ccccc4)CC3)c2)nnc1-c1ccncn1`, the IC50 in test [1] is greater than 10000 nM; in test [2] it was 34 nM.
On to `Cn1ncc(Br)c1CNC(=O)c1cccc(NCc2nnc(-c3ccncn3)n2C)c1`, for which the IC50 is greater than 10000 nM in test [1] and 22 nM in test [2].
For `Cn1c(CNc2cccc(C(=O)NCc3cccc(OCC(F)F)c3)c2)nnc1-c1ccncn1`, in that order: greater than 10000 nM and 43 nM.
For `COc1cccc(CNC(=O)c2cccc(NCc3nnc(-c4ccncn4)n3C)c2)c1`, in that order: greater than 30000 nM and 22 nM.
Regarding `CC(C)c1ocnc1CNC(=O)c1cccc(NCc2nnc(-c3ccncn3)n2C)c1`, the IC50 in test [1] was greater than 10000 nM; in test [2] it was 350 nM.
The like results for `COc1ccccc1[C@H](C)NC(=O)c1cccc(NCc2nnc(-c3ccncn3)n2C)c1` were, in that order, greater than 10000 nM and 94 nM.
The like results for `CC(NC(=O)c1cccc(NCc2nnc(-c3ccncn3)n2C)c1)c1ccsc1` (stereo not drawn) were, in that order, greater than 10000 nM and 4.9 nM.
Regarding `Cn1c(CNc2cccc(C(=O)NCc3c(F)cccc3-n3cccn3)c2)nnc1-c1ccncn1`, the figures for the IC50 in test [1] and in test [2] were greater than 10000 nM and 24 nM, respectively.
As for `COC[C@H](NC(=O)c1cccc(NCc2nnc(-c3ccncn3)n2C)c1)c1ccccn1`, the IC50 in test [1] is greater than 10000 nM; in test [2] it was 54 nM.
As to `Cn1c(CNc2cccc(C(=O)NCc3ccccc3CN3CCCC3=O)c2)nnc1-c1ccncn1`, the IC50 was greater than 10000 nM in test [1] and 49 nM in test [2].
For `C[C@H](NC(=O)c1cccc(NCc2nnc(-c3ccncn3)n2C)c1)c1cncs1`, in that order: greater than 10000 nM and 410 nM.
Regarding `Cn1c(CNc2cccc(C(=O)N[C@H]3CCOc4c(F)cccc43)c2)nnc1-c1ccncn1`, the IC50 worked out at 1230 nM in test [1] and 11 nM in test [2].
The like results for `Cn1c(CNc2cccc(C(=O)NCc3cccc(C(F)F)c3)c2)nnc1-c1ccncn1` were, in that order, greater than 10000 nM and 22 nM.
The like results for `Cn1c(CNc2cccc(C(=O)NCc3ccccc3)c2)nnc1-c1ccncn1` were, in that order, greater than 10000 nM and 20 nM.
The like results for `Cn1c(CNc2cccc(C(=O)NCc3ccc(F)cc3)c2)nnc1-c1ccncn1` were, in that order, 2160 nM and 19 nM.
On to `Cc1ccncc1CNC(=O)c1cccc(NCc2nnc(-c3ccncn3)n2C)c1`, for which the IC50 in test [1] amounted to 557 nM; in test [2], 13 nM.
Turning to `COc1ccnc(CNC(=O)c2cccc(NCc3nnc(-c4ccncn4)n3C)c2)c1F`, the IC50 in test [1] was greater than 10000 nM; in test [2] it was 200 nM.
Turning to `Cn1c(CNc2cccc(C(=O)NCc3cccc(C#N)c3F)c2)nnc1-c1ccncn1`, the values for the IC50 in test [1] and in test [2] were greater than 10000 nM and 30 nM, respectively.
The like results for `CC(NC(=O)c1cccc(NCc2nnc(-c3ccncn3)n2C)c1)c1ncnn1C` (stereo not drawn) were, in that order, greater than 10000 nM and 230 nM.
`Cc1cccnc1C(C)(C)NC(=O)c1cccc(NCc2nnc(-c3ccncn3)n2C)c1`: the IC50 in test [1] is greater than 10000 nM; in test [2], 630 nM.
For `COc1c(C)cccc1CNC(=O)c1cccc(NCc2nnc(-c3ccncn3)n2C)c1`, in that order: 2060 nM and 29 nM.
Turning to `COc1cccnc1CNC(=O)c1cccc(NCc2nnc(-c3ccncn3)n2C)c1`, the IC50 in test [1] was greater than 10000 nM; in test [2], 290 nM.
The like results for `CC(NC(=O)c1cccc(NCc2nnc(-c3ccncn3)n2C)c1)c1ccncc1F` (stereo not drawn) were, in that order, 103 nM and 15 nM.
In the case of `COc1ncccc1CNC(=O)c1cccc(NCc2nnc(-c3ccncn3)n2C)c1`, the IC50 in test [1] was greater than 10000 nM; in test [2], 70 nM.
For `Cc1ccncc1C(C)NC(=O)c1cccc(NCc2nnc(-c3ccncn3)n2C)c1` (stereo not drawn), in that order: 537 nM and 50 nM.
As to `CCCC(NC(=O)c1cccc(NCc2nnc(-c3ccncn3)n2C)c1)c1ccccn1` (stereo not drawn), the IC50 amounted to 1220 nM in test [1] and 67 nM in test [2].
The like results for `Cn1c(CNc2cccc(C(=O)NCc3ncnn3-c3ccccc3)c2)nnc1-c1ccncn1` were, in that order, greater than 10000 nM and 59 nM.
For `Cn1c(CNc2cccc(C(=O)NC(CCO)c3cccc(F)c3)c2)nnc1-c1ccncn1` (stereo not drawn), in that order: greater than 10000 nM and 37 nM.
For `COCC(NC(=O)c1cccc(NCc2nnc(-c3ccncn3)n2C)c1)c1ccc(F)c(F)c1` (stereo not drawn), in that order: 280 nM and 46 nM.
In the case of `Cn1c(CNc2cccc(C(=O)NC3(c4cccnc4)CC3)c2)nnc1-c1ccncn1`, the IC50 in test [1] was 583 nM; in test [2] it was 200 nM.
Take `C[C@H](NC(=O)c1cccc(NCc2nnc(-c3ccncn3)n2C)c1)c1ccncc1`: the values for the IC50 in test [1] and in test [2] were 771 nM and 45 nM, respectively.
The like results for `Cn1c(CNc2cccc(C(=O)NC3COc4cccc(F)c43)c2)nnc1-c1ccncn1` (stereo not drawn) were, in that order, greater than 10000 nM and 12 nM.
For `Cc1cccc2c1OCC[C@@H]2NC(=O)c1cccc(NCc2nnc(-c3ccncn3)n2C)c1`, in that order: greater than 10000 nM and 15 nM.
The like results for `Cn1c(CNc2cccc(C(=O)C[C@H]3CCCc4cccnc43)c2)nnc1-c1ccncn1` were, in that order, 224 nM and 20 nM.
As to `Cc1csc(C2(NC(=O)c3cccc(NCc4nnc(-c5ccncn5)n4C)c3)CCC2)n1`, the IC50 in test [1] was 445 nM; in test [2], 140 nM.
For the compound `Cn1c(CNc2cccc(C(=O)NC3(c4ccncn4)CC3)c2)nnc1-c1ccncn1`, the results for the IC50 in test [1] and in test [2] were 726 nM and 100 nM, respectively.
Take `CC(C)C(NC(=O)c1cccc(NCc2nnc(-c3ccncn3)n2C)c1)c1ccncc1` (stereo not drawn): the IC50 in test [1] came to 1170 nM; in test [2], 32 nM.
For the compound `Cn1c(CNc2cccc(C(=O)NCc3ncccc3C(F)(F)F)c2)nnc1-c1ccncn1`, the figures for the IC50 in test [1] and in test [2] were greater than 10000 nM and 17 nM, respectively.
The like results for `C[C@H](NC(=O)c1cccc(NCc2nnc(-c3ccncn3)n2C)c1)C1NCCS1` (stereo partly drawn) were, in that order, 172 nM and 150 nM.
For `CC(NC(=O)c1cccc(NCc2nnc(-c3ccncn3)n2C)c1)c1ncccc1Br` (stereo not drawn), in that order: greater than 10000 nM and 9.4 nM.
For `CCn1cnnc1CNC(=O)c1cccc(NCc2nnc(-c3ccncn3)n2C)c1`, in that order: greater than 10000 nM and 72 nM.
Take `COc1cccc(F)c1C(C)NC(=O)c1cccc(NCc2nnc(-c3ccncn3)n2C)c1` (stereo not drawn): the results for the IC50 in test [1] and in test [2] were greater than 10000 nM and 27 nM, respectively.
Consider `COC[C@H](NC(=O)c1cccc(NCc2nnc(-c3ccncn3)n2C)c1)c1cccnc1`, for which the figures for the IC50 in test [1] and in test [2] were 6110 nM and 46 nM, respectively.
The like results for `Cn1c(CNc2cccc(C(=O)NC(c3ccncc3)C3CCC3)c2)nnc1-c1ccncn1` (stereo not drawn) were, in that order, 136 nM and 22 nM.
With `COc1cccc2c1CCC2NC(=O)c1cccc(NCc2nnc(-c3ccncn3)n2C)c1` (stereo not drawn), the results for the IC50 in test [1] and in test [2] were 543 nM and 15 nM, respectively.
`Cn1c(CNc2cccc(C(=O)NCc3ccc(C[S+](C)[O-])cc3)c2)nnc1-c1ccncn1` (stereo not drawn): the figures for the IC50 in test [1] and in test [2] were greater than 10000 nM and 170 nM, respectively.
The like results for `CC(NC(=O)c1cccc(NCc2nnc(-c3ccncn3)n2C)c1)c1ccc2c(c1)CC(=O)N2C` (stereo not drawn) were, in that order, 158 nM and 21 nM.
The like results for `Cn1c(CNc2cccc(C(=O)NC3CCOc4ccccc43)c2)nnc1-c1ccncn1` (stereo not drawn) were, in that order, 563 nM and 22 nM.
On to `Cn1c(CNc2cccc(C(=O)NC(CO)c3cccc(C(F)(F)F)c3)c2)nnc1-c1ccncn1` (stereo not drawn), for which the IC50 in test [1] is greater than 10000 nM; in test [2] it was 34 nM.
Take `Cn1c(CNc2cccc(C(=O)NCc3nccc(Cl)c3F)c2)nnc1-c1ccncn1`: the IC50 in test [1] was less than 39 nM; in test [2] it was 220 nM.
For `Cn1cc(C(NC(=O)c2cccc(NCc3nnc(-c4ccncn4)n3C)c2)c2ccccc2)cn1` (stereo not drawn), in that order: 66.4 nM and 41 nM.
With `O=C(NCc1nccn1C(F)F)c1cccc(NCc2nnc(-c3ccncc3)[nH]2)c1`, the IC50 in test [1] was 2880 nM; in test [2], 14 nM.
With `Cc1ccnc(CNC(=O)c2cccc(NCc3nnc(-c4ccncc4)[nH]3)c2)n1`, the IC50 in test [1] is greater than 10000 nM; in test [2], 15 nM.
In the case of `CC(C)n1nccc1CNC(=O)c1cccc(NCc2nnc(-c3ccncc3)[nH]2)c1`, the IC50 in test [1] was greater than 10000 nM; in test [2] it was 20 nM.

Values taken from patent US20230009608A1, “GRK2 INHIBITORS AND USES THEREOF” (Cygnal Therapeutics, Inc., priority 2020, published 2023).
